Laboratory results: patent US9938273B2 (Plexxikon Inc., priority 2015, dated 2018)

Biological target: T1, FLT3-ITD (Homo sapiens, UniProt P36888)
T1 sequence (P36888 1-993): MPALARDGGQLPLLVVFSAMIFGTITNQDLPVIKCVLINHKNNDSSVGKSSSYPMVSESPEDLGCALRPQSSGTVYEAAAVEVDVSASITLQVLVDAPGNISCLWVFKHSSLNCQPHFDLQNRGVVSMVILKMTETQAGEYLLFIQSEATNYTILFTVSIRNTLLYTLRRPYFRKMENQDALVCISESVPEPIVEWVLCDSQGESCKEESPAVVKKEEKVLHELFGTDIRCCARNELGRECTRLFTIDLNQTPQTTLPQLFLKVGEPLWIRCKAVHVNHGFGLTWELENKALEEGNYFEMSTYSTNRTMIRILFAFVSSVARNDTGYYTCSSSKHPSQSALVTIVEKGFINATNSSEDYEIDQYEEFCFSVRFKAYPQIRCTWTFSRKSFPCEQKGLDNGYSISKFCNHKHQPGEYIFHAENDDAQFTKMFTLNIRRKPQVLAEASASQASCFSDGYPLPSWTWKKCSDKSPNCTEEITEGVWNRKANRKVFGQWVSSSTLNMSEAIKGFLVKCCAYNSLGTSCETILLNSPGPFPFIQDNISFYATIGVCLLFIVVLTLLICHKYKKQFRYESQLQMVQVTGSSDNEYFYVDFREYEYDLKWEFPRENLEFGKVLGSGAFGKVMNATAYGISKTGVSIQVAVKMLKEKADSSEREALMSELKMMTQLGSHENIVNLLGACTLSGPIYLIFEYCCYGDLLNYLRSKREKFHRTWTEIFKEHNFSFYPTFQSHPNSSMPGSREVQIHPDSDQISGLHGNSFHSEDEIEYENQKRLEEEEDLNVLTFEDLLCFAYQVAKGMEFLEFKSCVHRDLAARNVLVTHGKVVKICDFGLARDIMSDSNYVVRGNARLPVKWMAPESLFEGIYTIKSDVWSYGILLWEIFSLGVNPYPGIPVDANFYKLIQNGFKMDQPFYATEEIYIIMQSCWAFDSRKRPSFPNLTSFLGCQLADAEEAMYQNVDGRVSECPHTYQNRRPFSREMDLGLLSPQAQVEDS
Assay: AlphaScreen kinase assay with recombinant enzyme, FLT3-ITD
Type: biochemical
Details: 8pt; read-out: FLT3_ITD 8pt: IC50
Description: In order to determine the effect of compounds on FLT3 catalytic activity, kinase assays using recombinant enzymes and AlphaScreen® technology have been established. The catalytic activity of c-kit activity was also measured to determine selectivity of the compounds. When the kinases are catalytically active, they phosphorylate a biotinylated peptide substrate on tyrosine residues. Using AlphaScreen® technology, the ability of the compounds to affect the catalytic activity of the kinases can be measured quantitatively. The peptide substrate is immobilized by the AlphaScreen® Streptavidin Donor beads and, upon phosphorylation by a tyrosine kinase, can bind to AlphaScreen® Anti-Phosphotyrosine (PY20) Acceptor beads. Upon excitation of these beads with laser light at 680 nm, singlet oxygen is produced. This singlet oxygen is rapidly quenched, unless the AlphaScreen® Anti-Phosphotyrosine (PY20) Acceptor beads are in close proximity, in which case a proximity signal can be measured at 580 nm. In the presence of catalytic activity, there is a very strong proximity signal. Selective kinase inhibitors affect a decrease in this proximity signal through a decrease in tyrosine phosphorylation of the peptide substrate.
The assay was performed as summarized below.
Poly (Glu4-Tyr) Peptide, biotin conjugate [Biotin-GG(EEEEY)10EE] (SEQ ID NO: 4)
Final concentration=30 nM
Final concentration for IC50 determination=10 μM (FLT3-D835Y or FLT3-ITD) or 100 μM (c-KIT)
AlphaScreen® Phosphotyrosine (PY20) Assay Kit
Final concentration=10 μg/mL
Dilute compounds in DMSO to 20× final concentration.
Add 1 μl of compound to each well of 384 well reaction plate (Perkin Elmer #6005359).
Mix enzyme and Poly (Glu4-Tyr) Peptide substrate at 1.33× final concentration in assay buffer.
Mix ATP at 5× final concentration in assay buffer.
Add 15 μL enzyme/substrate mixture to the reaction plate.
Add 4 μL of ATP to the reaction plate.
Mix Streptavidin Donor beads at 6× final concentration in Stop/Detection buffer.
Add 5 μL Streptavidin Donor beads to the reaction plate. Centrifuge 1 minute, shake to mix, and incubate at room temperature for 20 minutes.
Mix Anti-Phosphotyrosine (PY20) Acceptor beads at 6× final concentration in Stop/Detection buffer.
Add 5 μL Anti-Phosphotyrosine (PY20) beads to the reaction plate.
Centrifuge 1 minute, shake to mix, and incubate at room temperature for 60 minutes.
Read plate on Wallac EnVision™ 2103 Multilabel Reader.

Question: How did the IC50 turn out when `COC1CCN(C(=O)c2cccc(-c3cnc4[nH]c(-c5ccccc5)cc4c3)n2)C1` (stereo not drawn) [Compound P-0095, (3-methoxypyrrolidin-1-yl)-[6-(2-phenyl-1H-pyrrolo[2,3-b]pyridin-5-yl)-2-pyridyl]methanone] was run?
Answer: 0.0001 to 10 µM

Question: For `COc1cc(-c2cc3cc(-c4cccc(C(=O)NCC(C)(C)C#N)n4)cnc3[nH]2)ccn1` [Compound P-0154, N-(2-cyano-2-methyl-propyl)-6-[2-(2-methoxy-4-pyridyl)-1H-pyrrolo[2,3-b]pyridin-5-yl]pyridine-2-carboxamide], which IC50 is on record?
Answer: 0.0001 to 10 µM

Question: How did the IC50 turn out when `N#CC1CCN(C(=O)c2cccc(-c3cnc4[nH]c(C5=CCOCC5)c(Cl)c4c3)n2)C1` (stereo not drawn) [Compound P-0142, 1-[6-[3-chloro-2-(3,6-dihydro-2H-pyran-4-yl)-1H-pyrrolo[2,3-b]pyridin-5-yl]pyridine-2-carbonyl]pyrrolidine-3-carbonitrile] was run?
Answer: 0.0001 to 10 µM

Question: `N#CC1(CNC(=O)c2cccc(-c3cnc4[nH]c(-c5ccccc5)c(Cl)c4c3)n2)CC1` [Compound P-0148, 6-(3-chloro-2-phenyl-1H-pyrrolo[2,3-b]pyridin-5-yl)-N-[(1-cyanocyclopropyl)methyl]pyridine-2-carboxamide] was tested. Which IC50 did it give?
Answer: 0.0001 to 10 µM

Question: How did the IC50 turn out when `CC(C)(C)OC(=O)N1CC=C(c2cc3cc(-c4cccc(C(=O)N5CCC(C#N)C5)n4)cnc3[nH]2)C1` (stereo not drawn) [Compound P-0135, tert-butyl 3-[5-[6-(3-cyanopyrrolidine-1-carbonyl)-2-pyridyl]-1H-pyrrolo[2,3-b]pyridin-2-yl]-2,5-dihydropyrrole-1-carboxylate] was run?
Answer: 0.0001 to 10 µM

Question: How did the IC50 turn out when `N#CC1(NC(=O)c2cccc(-c3cnc4[nH]c(-c5ccccc5)c(Cl)c4c3)n2)CC1` [Compound P-0139, 6-(3-chloro-2-phenyl-1H-pyrrolo[2,3-b]pyridin-5-yl)-N-(1-cyanocyclopropyl)pyridine-2-carboxamide] was run?
Answer: 0.0001 to 10 µM

Question: Which IC50 does the source give for `N#Cc1cccc(-c2cc3cc(-c4cccc(C(=O)N5CCC(C#N)C5)n4)cnc3[nH]2)c1` (stereo not drawn) [Compound P-0133, 1-[6-[2-(3-cyanophenyl)-1H-pyrrolo[2,3-b]pyridin-5-yl]pyridine-2-carbonyl]pyrrolidine-3-carbonitrile] here?
Answer: 0.0001 to 10 µM

Question: For `CC(C)(NC(=O)c1cccc(-c2cnc3[nH]c(C4=CCN(C(=O)C5CC5)C4)cc3c2)n1)C(N)=O` [Compound P-0179, N-(2-amino-1,1-dimethyl-2-oxo-ethyl)-6-[2-[1-(cyclopropanecarbonyl)-2,5-dihydropyrrol-3-yl]-1H-pyrrolo[2,3-b]pyridin-5-yl]pyridine-2-carboxamide], which IC50 is on record?
Answer: 0.0001 to 10 µM

Question: How did the IC50 turn out when `Cc1cc(-c2cc3cc(-c4cccc(C(=O)NC(C)(C)C#N)n4)cnc3[nH]2)cnn1` [Compound P-0163, N-(1-cyano-1-methyl-ethyl)-6-[2-(6-methylpyridazin-4-yl)-1H-pyrrolo[2,3-b]pyridin-5-yl]pyridine-2-carboxamide] was run?
Answer: 0.0001 to 10 µM

Question: How did the IC50 turn out when `N#CCCNC(=O)c1cccc(-c2cnc3[nH]c(-c4ccccc4)c(I)c3c2)n1` [Compound P-0143, N-(2-cyanoethyl)-6-(3-iodo-2-phenyl-1H-pyrrolo[2,3-b]pyridin-5-yl)pyridine-2-carboxamide] was run?
Answer: 0.0001 to 10 µM

Question: Which IC50 does the source give for `O=C(c1cccc(-c2cnc3[nH]c(-c4ccccc4)cc3c2)n1)N1CCC(F)(F)C1` [Compound P-0093, (3,3-difluoropyrrolidin-1-yl)-[6-(2-phenyl-1H-pyrrolo[2,3-b]pyridin-5-yl)-2-pyridyl]methanone] here?
Answer: 0.0001 to 10 µM

Question: For `CNC(=O)C1CCN(C(=O)c2cccc(-c3cnc4[nH]c(-c5ccccc5)cc4c3)n2)C1` (stereo not drawn) [Compound P-0096, N-methyl-1-[6-(2-phenyl-1H-pyrrolo[2,3-b]pyridin-5-yl)pyridine-2-carbonyl]pyrrolidine-3-carboxamide], which IC50 is on record?
Answer: 0.0001 to 10 µM

Question: With `N#CCCNC(=O)c1cccc(-c2cnc3[nH]c(-c4ccccc4)c(Cl)c3c2)n1` [Compound P-0125, 6-(3-chloro-2-phenyl-1H-pyrrolo[2,3-b]pyridin-5-yl)-N-(2-cyanoethyl)pyridine-2-carboxamide] as the molecule, how does the IC50 read?
Answer: 0.0001 to 10 µM

Question: How did the IC50 turn out when `Cc1cc(C#N)ccc1-c1cc2cc(-c3cccc(C(=O)N4CCC(C#N)C4)n3)cnc2[nH]1` (stereo not drawn) [Compound P-0130, 1-[6-[2-(4-cyano-2-methyl-phenyl)-1H-pyrrolo[2,3-b]pyridin-5-yl]pyridine-2-carbonyl]pyrrolidine-3-carbonitrile] was run?
Answer: 0.0001 to 10 µM

Question: How did the IC50 turn out when `Cn1cc(-c2cc3cc(-c4cccc(C(=O)NCC(C)(C)C#N)n4)cnc3[nH]2)ccc1=O` [Compound P-0155, N-(2-cyano-2-methyl-propyl)-6-[2-(1-methyl-6-oxo-3-pyridyl)-1H-pyrrolo[2,3-b]pyridin-5-yl]pyridine-2-carboxamide] was run?
Answer: 0.0001 to 10 µM

Question: Which IC50 does the source give for `O=C(NC1(C(F)(F)F)CCCC1)c1cccc(-c2cnc3[nH]c(-c4ccccc4)cc3c2)n1` [Compound P-0149, 6-(2-phenyl1H-pyrrolo[2,3-b]pyridin-5-yl)-N-[1-(trifluoromethyl)cyclopentyl]pyridine-2-carboxamide] here?
Answer: 0.0001 to 10 µM

Question: For `CC(C)(C#N)CNC(=O)c1cccc(-c2cnc3[nH]c(-c4ccccc4)c(Br)c3c2)n1` [Compound P-0126, 6-(3-bromo-2-phenyl-1H-pyrrolo[2,3-b]pyridin-5-yl)-N-(2-cyano-2-methyl-propyl)pyridine-2-carboxamide], which IC50 is on record?
Answer: 0.0001 to 10 µM

Question: How did the IC50 turn out when `N#CCCNC(=O)c1cccc(-c2cnc3[nH]c(-c4ccccc4)cc3c2)n1` [Compound P-0099, N-(2-cyanoethyl)-6-(2-phenyl-1H-pyrrolo[2,3-b]pyridin-5-yl)pyridine-2-carboxamide] was run?
Answer: 0.0001 to 10 µM

Question: With `CC(C)(C#N)CNC(=O)c1cccc(-c2cnc3[nH]c(-c4ccccc4)cc3c2)n1` [Compound P-0100, N-(2-cyano-2-methyl-propyl)-6-(2-phenyl-1H-pyrrolo[2,3-b]pyridin-5-yl)pyridine-2-carboxamide] as the molecule, how does the IC50 read?
Answer: 0.0001 to 10 µM

Question: With `CC(C)(C#N)CNC(=O)c1cccc(-c2cnc3[nH]c(-c4ccnc(C5CC5)c4)cc3c2)n1` [Compound P-0152, N-(2-cyano-2-methyl-propyl)-6-[2-(2-cyclopropyl-4-pyridyl)-1H-pyrrolo[2,3-b]pyridin-5-yl]pyridine-2-carboxamide] as the molecule, how does the IC50 read?
Answer: 0.0001 to 10 µM

Question: For `CS(=O)(=O)N1CCC(NS(=O)(=O)c2cccc(-c3cnc4[nH]c(-c5ccccc5)cc4c3)n2)C1` (stereo not drawn) [Compound P-0107, N-(1-methylsulfonylpyrrolidin-3-yl)-6-(2-phenyl-1H-pyrrolo[2,3-b]pyridin-5-yl)pyridine-2-sulfonamide], which IC50 is on record?
Answer: 0.0001 to 10 µM

Question: Which IC50 does the source give for `N#CC1CCN(C(=O)c2cccc(-c3cnc4[nH]c(-c5ccccc5)cc4c3)n2)C1` (stereo not drawn) [Compound P-0105, 1-[6-(2-phenyl-1H-pyrrolo[2,3-b]pyridin-5-yl)pyridine-2-carbonyl]pyrrolidine-3-carbonitrile] here?
Answer: 0.0001 to 10 µM

Question: How did the IC50 turn out when `CN(CCC#N)C(=O)c1cccc(-c2cnc3[nH]c(-c4ccccc4)cc3c2)n1` [Compound P-0119, N-(2-cyanoethyl)-N-methyl-6-(2-phenyl-1H-pyrrolo[2,3-b]pyridin-5-yl)pyridine-2-carboxamide] was run?
Answer: 0.0001 to 10 µM

Question: For `CC(C)(C#N)CNC(=O)c1cccc(-c2cnc3[nH]c(-c4ccccc4)c(I)c3c2)n1` [Compound P-0127, N-(2-cyano-2-methyl-propyl)-6-(3-iodo-2-phenyl-1H-pyrrolo[2,3-b]pyridin-5-yl)pyridine-2-carboxamide], which IC50 is on record?
Answer: 0.0001 to 10 µM
